Values joined by “and” are separate entries in the source; they are usually repeats but may differ in a detail not shown here. Equal entries are not always repeated.
Experiments:
Test in all cases: Caliper, Mobility shift assay off-chip
CDK6 (human) = CDK6 (human) (UniProt Q00534)
DCLK2 (human) = DCLK2 (human) (UniProt Q8N568)
PHKG1 (human) = PHKG1 (human) (UniProt Q16816)
NEK6 (human) = NEK6 (human) (UniProt Q9HC98)
EPHA3 (human) = EPHA3 (human) (UniProt P29320)
PRKAA1 (human) = PRKAA1 (human) (UniProt Q13131)
MET (human) = MET (human) (UniProt P08581)
RPS6KA2 KD1 KD2 (human) = RPS6KA2 KD1 KD2 (human) (UniProt Q15349)
Chain of RPS6KA2 KD1 KD2 (human) (Q15349 whole entry, looked up): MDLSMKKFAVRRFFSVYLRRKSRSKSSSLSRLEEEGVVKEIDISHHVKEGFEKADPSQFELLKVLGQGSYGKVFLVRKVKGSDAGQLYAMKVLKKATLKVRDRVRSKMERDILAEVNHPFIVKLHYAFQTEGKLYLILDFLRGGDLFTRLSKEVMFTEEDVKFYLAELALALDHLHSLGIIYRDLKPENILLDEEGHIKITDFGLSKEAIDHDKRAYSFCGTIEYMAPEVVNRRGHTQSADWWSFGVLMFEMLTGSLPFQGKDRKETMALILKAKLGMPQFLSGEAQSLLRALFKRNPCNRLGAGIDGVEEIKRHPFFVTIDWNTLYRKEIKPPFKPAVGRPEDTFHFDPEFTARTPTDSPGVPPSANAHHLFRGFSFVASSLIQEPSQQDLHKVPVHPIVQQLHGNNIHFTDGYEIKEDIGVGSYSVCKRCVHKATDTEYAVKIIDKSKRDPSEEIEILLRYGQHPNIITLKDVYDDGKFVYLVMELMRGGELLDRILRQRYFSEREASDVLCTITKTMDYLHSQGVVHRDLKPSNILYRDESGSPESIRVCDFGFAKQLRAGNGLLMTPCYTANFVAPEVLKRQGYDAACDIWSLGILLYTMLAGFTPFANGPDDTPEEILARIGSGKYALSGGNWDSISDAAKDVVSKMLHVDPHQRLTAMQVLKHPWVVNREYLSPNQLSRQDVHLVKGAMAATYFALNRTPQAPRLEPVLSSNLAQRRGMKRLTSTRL

MAPK8 (human) = MAPK8 (human) (UniProt P45983)
AKT3 (human) = AKT3 (human) (UniProt Q9Y243)
Chain of AKT3 (human) (Q9Y243 whole entry, looked up): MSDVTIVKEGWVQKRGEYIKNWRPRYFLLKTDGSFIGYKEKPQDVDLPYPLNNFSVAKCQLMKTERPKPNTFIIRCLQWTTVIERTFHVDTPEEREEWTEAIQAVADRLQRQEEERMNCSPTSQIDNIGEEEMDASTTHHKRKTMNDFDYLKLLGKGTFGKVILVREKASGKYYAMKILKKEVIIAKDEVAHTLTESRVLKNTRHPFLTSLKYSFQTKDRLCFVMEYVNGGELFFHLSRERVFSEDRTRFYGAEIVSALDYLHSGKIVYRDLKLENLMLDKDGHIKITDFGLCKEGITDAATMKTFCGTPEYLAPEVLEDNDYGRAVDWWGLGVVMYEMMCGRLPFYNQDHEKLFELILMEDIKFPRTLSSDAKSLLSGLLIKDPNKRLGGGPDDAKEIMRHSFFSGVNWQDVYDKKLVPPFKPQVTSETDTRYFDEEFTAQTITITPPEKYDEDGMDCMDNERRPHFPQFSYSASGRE

PLK3 (human) = PLK3 (human) (UniProt Q9H4B4)
PRKCA (human) = PRKCA (human) (UniProt P17252)
RPS6KA5 KD1 KD2 (human) = RPS6KA5 KD1 KD2 (human) (UniProt O75582)
CDK2 (human) = CDK2 (human) (UniProt P24941)
RPS6KA1 KD1 KD2 (human) = RPS6KA1 KD1 KD2 (human) (UniProt Q15418)
PDK4 (human) = PDK4 (human) (UniProt Q16654)
RPS6KB2 (human) = RPS6KB2 (human) (UniProt Q9UBS0)
SGK2 (human) = SGK2 (human) (UniProt Q9HBY8)
Chain of SGK2 (human) (Q9HBY8 whole entry, looked up): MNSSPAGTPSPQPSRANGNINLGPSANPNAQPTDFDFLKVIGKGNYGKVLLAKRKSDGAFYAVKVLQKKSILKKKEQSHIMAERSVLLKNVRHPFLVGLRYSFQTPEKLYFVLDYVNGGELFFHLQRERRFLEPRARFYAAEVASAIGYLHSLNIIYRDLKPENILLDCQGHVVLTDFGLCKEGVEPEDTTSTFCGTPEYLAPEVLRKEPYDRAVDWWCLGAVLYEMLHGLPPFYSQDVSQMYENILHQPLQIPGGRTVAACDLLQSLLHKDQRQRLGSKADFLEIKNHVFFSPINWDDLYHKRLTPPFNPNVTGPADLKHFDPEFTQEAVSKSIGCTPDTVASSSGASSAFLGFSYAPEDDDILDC

ABL2 (human) = ABL2 (human) (UniProt P42684)
Chain of ABL2 (human) (P42684 whole entry, looked up): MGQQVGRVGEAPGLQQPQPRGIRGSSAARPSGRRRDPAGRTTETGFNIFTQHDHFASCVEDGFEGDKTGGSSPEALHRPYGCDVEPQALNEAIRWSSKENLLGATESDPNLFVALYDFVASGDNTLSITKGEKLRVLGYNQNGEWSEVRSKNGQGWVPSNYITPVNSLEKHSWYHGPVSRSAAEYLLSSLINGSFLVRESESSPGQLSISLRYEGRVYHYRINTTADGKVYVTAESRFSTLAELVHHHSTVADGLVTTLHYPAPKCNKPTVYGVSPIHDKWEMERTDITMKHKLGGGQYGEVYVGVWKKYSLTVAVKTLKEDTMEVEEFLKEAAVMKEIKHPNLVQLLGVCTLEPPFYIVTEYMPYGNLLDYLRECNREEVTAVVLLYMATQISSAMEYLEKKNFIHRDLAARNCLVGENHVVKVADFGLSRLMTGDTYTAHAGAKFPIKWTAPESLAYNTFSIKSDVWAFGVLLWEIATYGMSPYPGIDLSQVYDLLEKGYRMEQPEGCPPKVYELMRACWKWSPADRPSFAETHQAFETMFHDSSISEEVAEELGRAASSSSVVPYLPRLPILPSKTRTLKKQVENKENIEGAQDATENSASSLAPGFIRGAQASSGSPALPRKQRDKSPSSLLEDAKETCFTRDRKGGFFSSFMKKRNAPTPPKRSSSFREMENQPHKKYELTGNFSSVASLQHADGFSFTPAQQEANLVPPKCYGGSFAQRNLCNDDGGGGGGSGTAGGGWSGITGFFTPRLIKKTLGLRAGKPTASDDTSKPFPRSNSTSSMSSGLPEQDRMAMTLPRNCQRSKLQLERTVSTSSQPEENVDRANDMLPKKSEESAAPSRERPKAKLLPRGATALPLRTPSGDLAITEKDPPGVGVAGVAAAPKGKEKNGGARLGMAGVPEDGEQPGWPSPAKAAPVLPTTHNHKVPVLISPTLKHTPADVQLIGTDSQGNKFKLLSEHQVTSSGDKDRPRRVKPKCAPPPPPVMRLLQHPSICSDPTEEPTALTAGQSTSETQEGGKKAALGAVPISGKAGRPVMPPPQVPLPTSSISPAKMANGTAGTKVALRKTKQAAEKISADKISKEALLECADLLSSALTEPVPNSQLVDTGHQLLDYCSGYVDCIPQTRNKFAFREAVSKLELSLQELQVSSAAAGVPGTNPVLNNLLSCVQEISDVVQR

CSNK2A2 (human) = CSNK2A2 (human) (UniProt P19784)
IKBKB (human) = IKBKB (human) (UniProt O14920)
IRAK1 (human) = IRAK1 (human) (UniProt P51617)
PRKCZ (human) = PRKCZ (human) (UniProt Q05513)
Chain of PRKCZ (human) (Q05513 whole entry, looked up): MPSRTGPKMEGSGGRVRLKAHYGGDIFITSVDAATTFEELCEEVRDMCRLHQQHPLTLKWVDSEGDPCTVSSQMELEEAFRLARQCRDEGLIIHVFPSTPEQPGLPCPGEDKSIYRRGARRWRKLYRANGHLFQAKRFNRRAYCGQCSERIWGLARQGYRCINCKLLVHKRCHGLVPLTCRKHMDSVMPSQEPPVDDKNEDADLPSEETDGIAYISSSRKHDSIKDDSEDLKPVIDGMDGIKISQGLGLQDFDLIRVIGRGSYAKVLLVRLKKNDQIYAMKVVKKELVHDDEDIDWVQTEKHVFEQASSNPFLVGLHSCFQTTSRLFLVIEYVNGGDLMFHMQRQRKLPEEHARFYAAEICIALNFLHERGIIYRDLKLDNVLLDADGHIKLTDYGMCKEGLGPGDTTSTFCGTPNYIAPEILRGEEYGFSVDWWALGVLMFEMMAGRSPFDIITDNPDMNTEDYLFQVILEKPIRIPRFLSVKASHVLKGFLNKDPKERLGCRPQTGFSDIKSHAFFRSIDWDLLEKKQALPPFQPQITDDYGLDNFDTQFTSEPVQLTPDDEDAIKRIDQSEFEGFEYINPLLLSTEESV

DYRK3 (human) = DYRK3 (human) (UniProt O43781)
ROCK2 (human) = ROCK2 (human) (UniProt O75116)
AURKC (human) = AURKC (human) (UniProt Q9UQB9)
EPHB3 (human) = EPHB3 (human) (UniProt P54753)
NEK4 (human) = NEK4 (human) (UniProt P51957)
PGK1 (human) = PGK1 (human) (UniProt P00558)
NEK7 (human) = NEK7 (human) (UniProt Q8TDX7)
RPS6KB1 (human) = RPS6KB1 (human) (UniProt P23443)
AURKA (human) = AURKA (human) (UniProt O14965)
DYRK1A (human) = DYRK1A (human) (UniProt Q13627)

Chain of DCLK2 (human) (Q8N568 whole entry, looked up): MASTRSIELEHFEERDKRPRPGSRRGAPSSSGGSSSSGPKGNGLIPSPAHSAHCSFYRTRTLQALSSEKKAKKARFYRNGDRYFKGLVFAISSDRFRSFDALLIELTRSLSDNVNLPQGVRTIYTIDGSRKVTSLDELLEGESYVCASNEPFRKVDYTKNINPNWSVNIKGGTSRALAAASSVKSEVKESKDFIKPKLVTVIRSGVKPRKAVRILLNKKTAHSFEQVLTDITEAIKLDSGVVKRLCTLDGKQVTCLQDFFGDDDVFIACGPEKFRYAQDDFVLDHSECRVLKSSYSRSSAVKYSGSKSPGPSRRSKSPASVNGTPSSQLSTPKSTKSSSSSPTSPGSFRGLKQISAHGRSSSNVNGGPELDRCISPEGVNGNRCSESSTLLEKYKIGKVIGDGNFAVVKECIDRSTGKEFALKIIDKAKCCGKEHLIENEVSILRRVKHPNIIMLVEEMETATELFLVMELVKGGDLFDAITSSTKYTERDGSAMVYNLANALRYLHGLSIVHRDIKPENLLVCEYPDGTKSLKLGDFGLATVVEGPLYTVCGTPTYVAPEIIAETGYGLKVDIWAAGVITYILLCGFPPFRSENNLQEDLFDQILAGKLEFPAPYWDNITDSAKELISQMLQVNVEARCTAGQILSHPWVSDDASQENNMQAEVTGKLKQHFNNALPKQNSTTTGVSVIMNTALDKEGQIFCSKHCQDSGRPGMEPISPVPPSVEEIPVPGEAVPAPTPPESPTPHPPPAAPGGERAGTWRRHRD

- inhibition (CDK6 (human); compound 0.02 µM): 0.1%
- inhibition (CDK6 (human); compound 0.2 µM): 2%
- inhibition (DCLK2 (human); compound 0.02 µM): -2.7%
- inhibition (DCLK2 (human); compound 0.2 µM): -1%
- inhibition (PHKG1 (human); compound 0.02 µM): -3.6%
- inhibition (PHKG1 (human); compound 0.2 µM): -2%
- inhibition (NEK6 (human); compound 0.02 µM): -5%
- inhibition (NEK6 (human); compound 0.2 µM): -6.1%
- inhibition (EPHA3 (human); compound 0.02 µM): -2.6%
- inhibition (EPHA3 (human); compound 0.2 µM): 17%
- inhibition (PRKAA1 (human); compound 0.02 µM): -5.7%
- inhibition (PRKAA1 (human); compound 0.2 µM): 10.7%
- inhibition (MET (human); compound 0.02 µM): -12.2%
- inhibition (MET (human); compound 0.2 µM): 4.4%
- inhibition (RPS6KA2 KD1 KD2 (human); compound 0.02 µM): -4.3%
- inhibition (RPS6KA2 KD1 KD2 (human); compound 0.2 µM): -0.2%
- inhibition (MAPK8 (human); compound 0.02 µM): -2.3%
- inhibition (MAPK8 (human); compound 0.2 µM): -2.1%
- inhibition (AKT3 (human); compound 0.02 µM): -2.6%
- inhibition (AKT3 (human); compound 0.2 µM): -1.1%
- inhibition (PLK3 (human); compound 0.02 µM): 4%
- inhibition (PLK3 (human); compound 0.2 µM): 5.3%
- inhibition (PRKCA (human); compound 0.02 µM): 1.2%
- inhibition (PRKCA (human); compound 0.2 µM): 12.2%
- inhibition (RPS6KA5 KD1 KD2 (human); compound 0.02 µM): -2.5%
- inhibition (RPS6KA5 KD1 KD2 (human); compound 0.2 µM): 0.1%
- inhibition (CDK2 (human); compound 0.02 µM): -3.5% and -3.6%
- inhibition (CDK2 (human); compound 0.2 µM): -1.3% and -2.4%
- inhibition (RPS6KA1 KD1 KD2 (human); compound 0.02 µM): -3.6%
- inhibition (RPS6KA1 KD1 KD2 (human); compound 0.2 µM): 3.1%
- inhibition (PDK4 (human); compound 0.02 µM): 1.9%
- inhibition (PDK4 (human); compound 0.2 µM): 3.4%
- inhibition (RPS6KB2 (human); compound 0.02 µM): 6.3%
- inhibition (RPS6KB2 (human); compound 0.2 µM): 5.5%
- inhibition (SGK2 (human); compound 0.02 µM): -0.9%
- inhibition (SGK2 (human); compound 0.2 µM): 8.4%
- inhibition (ABL2 (human); compound 0.02 µM): -2.8%
- inhibition (ABL2 (human); compound 0.2 µM): 3.1%
- inhibition (CSNK2A2 (human); compound 0.02 µM): -3.5%
- inhibition (CSNK2A2 (human); compound 0.2 µM): 0.9%
- inhibition (IKBKB (human); compound 0.02 µM): 0.9%
- inhibition (IKBKB (human); compound 0.2 µM): 1.4%
- inhibition (IRAK1 (human); compound 0.02 µM): -4%
- inhibition (IRAK1 (human); compound 0.2 µM): -7.2%
- inhibition (PRKCZ (human); compound 0.02 µM): 0%
- inhibition (PRKCZ (human); compound 0.2 µM): 11.3%
- inhibition (DYRK3 (human); compound 0.02 µM): -5.8%
- inhibition (DYRK3 (human); compound 0.2 µM): 2.1%
- inhibition (ROCK2 (human); compound 0.02 µM): -2%
- inhibition (ROCK2 (human); compound 0.2 µM): 2.8%
- inhibition (AURKC (human); compound 0.02 µM): 0%
- inhibition (AURKC (human); compound 0.2 µM): 11.8%
- inhibition (EPHB3 (human); compound 0.02 µM): -2.4%
- inhibition (EPHB3 (human); compound 0.2 µM): 0.9%
- inhibition (NEK4 (human); compound 0.02 µM): -3%
- inhibition (NEK4 (human); compound 0.2 µM): -0.8%
- inhibition (PGK1 (human); compound 0.02 µM): -6.2%
- inhibition (PGK1 (human); compound 0.2 µM): 1.9%
- inhibition (NEK7 (human); compound 0.02 µM): -3.3%
- inhibition (NEK7 (human); compound 0.2 µM): -3.3%
- inhibition (RPS6KB1 (human); compound 0.02 µM): 8.1%
- inhibition (RPS6KB1 (human); compound 0.2 µM): 48.1%
- inhibition (AURKA (human); compound 0.02 µM): -1.5%
- inhibition (AURKA (human); compound 0.2 µM): 5.4%
- inhibition (DYRK1A (human); compound 0.02 µM): -7.5%
- inhibition (DYRK1A (human); compound 0.2 µM): 3.6%
Compound: CNC(=O)c1cc(Oc2ccc(NC(=O)Nc3ccc(Cl)c(C(F)(F)F)c3)cc2)ccn1
